The values that follow come from PubChem BioAssay (NCI).

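Assay format: 96-well plates, 48-hour exposure. GI50: concentration for 50% inhibition of growth. The concentration for full growth arrest is given as TGI.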

What all share (test): NCI anticancer screen, dose series, 48 h
For assay [1], the system named is A498 renal.
Assay [2] has as its system HCT-15 colon.
In assay [3] the test system is KM12 colon.
The subject of assay [4] is LOX IMVI melanoma.
Assay [5] has as its system MOLT-4 leukemia.
The test system of assay [6] is OVCAR-5 ovarian.
Assay [7] concerns OVCAR-8 ovarian.
Assay [8] deals with RXF 393 renal.
The subject of assay [9] is SNB-75 CNS.
The test system of assay [10] is UACC-257 melanoma.

Take `NNC(=S)N/N=C(\c1nc2ccc(Cl)cc2[nH]c1=O)C(O)c1cccc([N+](=O)[O-])c1` (stereo not given): the TGI is > 100 µM in assay [1]; > 100 µM in assay [2]; > 100 µM in assay [3]; > 56.6 µM in assay [4]; > 100 µM in assay [5]; > 100 µM in [6]. The TGI in [7], in [8], in assay [9] and in assay [10] was > 100 µM throughout.
Turning to `COc1cccc(C2=C(c3cn(C)c4c(C)cccc34)C(=O)NC2=O)c1`, the GI50 is 5.89 µM in assay [1]; 14.2 µM in [2]; > 21 µM in [3]; > 25 µM in assay [4]; 16.3 µM in assay [5]; > 25 µM in assay [6]. Also, the GI50 was > 25 µM in [7], 8.58 µM in [8], 0.909 µM in assay [9] and > 25 µM in assay [10]. Also, the TGI in [1] is > 21.9 µM; in assay [2], > 25 µM; in assay [3], > 25 µM; in [4] it was > 25 µM; in [5], > 25 µM; in assay [6], > 25 µM. Moreover, the TGI in assay [7], in [8], in [9] and in assay [10] was > 25 µM each time.
As to `O=c1oc2cc(O)ccc2cc1-c1nc2ccccc2o1`, the TGI in assay [1] was 84.7 µM; in [2] it was > 100 µM; in assay [3], 93 µM; in assay [4], > 100 µM; in assay [5], > 100 µM; in assay [6], > 100 µM. In addition, the TGI in assay [7] is > 100 µM; in assay [8], 35.5 µM; in assay [9], > 100 µM; in assay [10], > 100 µM.
In the case of `CN(C)Cc1c[nH]c2nc[nH]c(=O)c12`, the TGI was > 100 µM in assay [1]; > 100 µM in assay [2]; > 100 µM in assay [3]; 40.9 µM in assay [4]; 24.7 µM in assay [5]; > 100 µM in assay [6]. The TGI in assay [7] was > 100 µM; in assay [8], 45.9 µM; in assay [9], > 100 µM; in assay [10] it was 52 µM.
On to `CC(=O)OC1CCC2(C)C(=CCC3C2CCC2(C)C3CC3OC4(CCC(C)CN4)C(C)C32)C1` (stereo not given), for which the TGI in [1], in [2], in [3], in assay [4], in assay [5] and in [6] was > 100 µM each time. Moreover, the TGI in assay [7], in assay [8], in assay [9] and in [10] was > 100 µM in each case.
With `Cc1ccc(-c2csc3ncnc(Nc4cccc(O)c4)c23)cc1`, the GI50 in [1] was 30.8 µM; in assay [2], 19.8 µM; in assay [3], 25.7 µM; in [4], 25.9 µM; in assay [5], 41.6 µM; in assay [6], 25.5 µM. The GI50 was 32.3 µM in assay [7], 48.2 µM in assay [8], 39.6 µM in [9] and 17.5 µM in assay [10]. In addition, the TGI was 66.5 µM in [1]; 44.5 µM in assay [2]; 69 µM in [3]; 62 µM in [4]; > 100 µM in assay [5]; 69.6 µM in assay [6]. Further, the TGI is > 100 µM in assay [7], 81.2 µM in assay [8], > 100 µM in assay [9] and 38.9 µM in assay [10].
With `O=C1/C(=C/c2ccc([N+](=O)[O-])s2)Oc2ccc(Br)cc21`, the GI50 in assay [1] is 2.31 µM; in assay [2], 0.208 µM; in [3], 0.247 µM; in assay [4] it was 0.209 µM; in assay [5] it was 0.461 µM; in assay [6], 1.07 µM. The GI50 in assay [7] was 0.37 µM; in assay [8] it was 0.274 µM; in assay [9] it was 0.342 µM; in [10] it was 0.572 µM. In addition, the TGI in [1] came to 6.32 µM; in assay [2] it was 0.583 µM; in assay [3], 0.623 µM; in assay [4], 0.486 µM; in assay [5], 3.82 µM; in assay [6] it was 2.47 µM. Further, the TGI in [7] was > 100 µM; in assay [8], 0.813 µM; in assay [9] it was 4.17 µM; in [10] it was 3.96 µM.
As for `Nc1ncnc2c1ncn2C1OC(F)(COS(N)(=O)=O)C(O)C1O` (stereo not given), the GI50 in assay [1], in assay [2], in [3], in assay [4], in assay [5] and in assay [6] was > 100 µM in each case. For the same compound, the GI50 in assay [7] was > 100 µM; in assay [8], 97.9 µM; in assay [9], > 100 µM; in assay [10], > 100 µM. Further, the TGI in assay [1], in [2], in assay [3], in [4], in assay [5] and in assay [6] was > 100 µM each time. Besides, the TGI in assay [7], in [8], in assay [9] and in assay [10] was > 100 µM in each case.
Turning to `CC12CC(Br)(Br)C(=O)C3C1CCCC32`, the TGI in [1] amounted to 31.1 µM; in assay [2], 15.7 µM; in [3], 28.3 µM; in [4], 7.67 µM; in assay [5], 14.9 µM; in assay [6] it was 32.1 µM. The TGI in assay [7] was 12.7 µM; in assay [8], 6.04 µM; in assay [9] it was 22.9 µM; in assay [10], 22.2 µM.
For `CCCCCCCCCCCCNCCCc1ccccc1`, the GI50 in assay [1] was 2.3 µM; in [2], 1.71 µM; in assay [3], 1.75 µM; in assay [4] it was 1.77 µM; in [5] it was 2.04 µM; in [6], 1.68 µM. The GI50 in assay [7] is 1.75 µM; in assay [8], 1.63 µM; in [9] it was 1.43 µM; in assay [10], 1.74 µM. Also, the TGI worked out at 6.69 µM in [1]; 3.33 µM in assay [2]; 3.13 µM in [3]; 3.24 µM in [4]; 4.5 µM in assay [5]; 3.48 µM in assay [6]. Also, the TGI in assay [7] was 3.39 µM; in [8], 3.1 µM; in assay [9], 2.89 µM; in assay [10] it was 3.18 µM.
In the case of `CCCCCCCCCCCCNC(=S)OCCCC`, the TGI was > 100 µM in assay [1]; > 100 µM in assay [2]; > 100 µM in [3]; 35.8 µM in assay [4]; 52.4 µM in assay [5]; > 100 µM in assay [6]. The TGI in assay [7], in assay [8], in assay [9] and in assay [10] was > 100 µM each time.
Consider `COc1cccc2c1C(=O)c1c(O)c3c(c(O)c1C2=O)C[C@@](O)(C(=O)CO)C[C@@H]3OC1CC2C(OCN2CN2COC3C(C)OC(O[C@H]4C[C@](O)(C(=O)CO)Cc5c(O)c6c(c(O)c54)C(=O)c4c(OC)cccc4C6=O)CC32)C(C)O1` (stereo not given in full), for which the GI50 is 0.0196 µM in [1]; 0.0278 µM in assay [2]; 0.0139 µM in assay [3]; 0.002 µM in assay [4]; 0.000203 µM in assay [5]; 0.0304 µM in [6]. Further, the GI50 is 0.0113 µM in assay [7], 0.000978 µM in [8], 0.00419 µM in assay [9] and 0.0015 µM in assay [10]. Further, the TGI in assay [1] is 0.0821 µM; in assay [2] it was > 1 µM; in [3], 0.0609 µM; in assay [4], 0.0328 µM; in assay [5], 0.00801 µM; in assay [6] it was > 0.264 µM. Besides, the TGI in assay [7] was > 1 µM; in assay [8], 0.0101 µM; in assay [9], 0.0149 µM; in assay [10], 0.0208 µM.
